# Values of other authors as cited in patent US11798661B2, “Methods for lowering blood pressure with a dihydropyridine-type calcium channel blocker pharmaceutical composition” (A[…] Limited, priority 2018, dated 2023).
# Conditions: co-administration of 240 mL grapefruit juice with a single oral dose of amlodipine 10 mg
compound,measurement,value
"CCOC(=O)C1=C(COCCN)NC(C)=C(C(=O)OC)C1c1ccccc1Cl (racemic) [amlodipine, (RS)-3-ethyl 5-methyl 2-[(2-aminoethoxy)methyl]-4-(2-chlorophenyl)-6-methyl-1,4-dihydropyridine-3,5-dicarboxylate]",effect on the pharmacokinetics of amlodipine,no significant effect
